We go through 21 molecules from EP0142732B1, “Pheophorbide derivatives and pharmaceutical preparations containing them” (TOYO HAKKA KOGYO KABUSHIKI KAISHA, priority 1983, dated 1985).

The subject of the first test is nitrosamine-induced cancer cells of the pancreas. Kind of test: N2 pulsed laser spectro-fluorometry of removed organs after administration to tumour-bearing hamsters. The format is in vivo, golden hamsters. To be noted: 24 hours after administration; 5 mg in 1 ml physiological saline. How it is done: Five mg of the test drug sodium 9-desoxo-9-hydroxy pheophorbide diluted in physiological saline (1 ml) was administered (1 ml) to golden hamsters (5 each for a group) 14-21 days after transplantation of nitrosamine-induced cancer cells of the pancreas, after which cancer cells and other organs were removed. N2-pulsed laser (N2 337 nm, 2 ns 400-1000 nm) was irradiated to each organ thus obtained to measure N2 pulsed laser spectro-fluorometry.
N2 pulsed laser spectro-fluorometry of each removed organ was measured 24 hours and 48 hours afterwards to investigate the wavelengths of 600 to 900 nm based on the peak wavelengths of NADH of 470 nm.
Golden hamsters (5 per one group) 14-21 days after transplantation of nitrosamine-induced cancer cells of the pancreas were administered 5 mg each of sodium 2-desethenyl-2-(1-hydroxyethyl) pheophorbide (sodium salt of (2)), sodium 2-desethynyl-2-(1-hydroxyethyl)-9-desoxo-9-hydroxy pheophorbide (sodium salt (3)), sodium 2-desethenyl-2-(1-acetyloxyethyl)-9-desoxo-9-acetyloxy pheophorbide (sodium salt of (4)), sodium ethylene glycol mono-10b-pheophorbate (sodium salt of (8)), disodium ethylene glycol di-10b-pheophorbate (sodium salt of (10)) and sodium N-phenylalanine 10b-methyl pheophorbid amide (sodium salt of (9)) respectively diluted with physiological saline (1 ml). Cancer cells and other organs were removed, irradiated with N2-pulsed laser (N2, 337 nm, 2 ns 400-1000 nm) to measure N2 pulsed laser spectro fluorometry. Using the. NADH peak wavelength of 470 nm as the reference, wavelengths in the range of from 600-900 nm were studied.
Various organs were removed 24 hours after administration and their N2 pulsed laser spectro-fluorometry was measured.
As for `C=Cc1c(C)c2cc3nc(c4c5[nH]c(cc6nc(cc1[nH]2)C(C)=C6CC)c(C)c5C(O)C4C(=O)OC)C(CCC(=O)O)C3C` (stereo not shown) [9-Desoxo-9-hydroxy-pheophorbate (11), 9-desoxo-9-hydroxy-pheophorbide], the “accumulation in cancer cells and other organs (N2 pulsed laser spectro-fluorometry)” value is reported as “generally found in organs”.

The test is the same for the next values; noted with them: 48 hours after administration; 5 mg in 1 ml physiological saline.
With `C=Cc1c(C)c2cc3nc(c4c5[nH]c(cc6nc(cc1[nH]2)C(C)=C6CC)c(C)c5C(O)C4C(=O)OC)C(CCC(=O)O)C3C` (stereo not shown) [9-Desoxo-9-hydroxy-pheophorbate (11), 9-desoxo-9-hydroxy-pheophorbide], the “accumulation in cancer cells and other organs (N2 pulsed laser spectro-fluorometry)” value is on record as “markedly accumulated in cancer cells alone but not in other cells”.

Still in this test, the particulars now being: sodium compounds; organs removed 24 hours after administration; N2 337 nm laser, 600-900 nm.
Turning to `CCC1=C(C)c2cc3[nH]c(cc4nc(c5c6[nH]c(cc1n2)c(C)c6C(=O)C5C(=O)OC)C(CCC(=O)O)C4C)c(C)c3C(C)O` (stereo not shown) [2-desethenyl-2-(1-hydroxyethyl)-pheophorbide], the “N2 pulsed laser spectro-fluorometry, wavelengths calculated using the NADH peak wavelength of 470 nm as the reference” value was 1.90.
Same read-out and setting: the result for `C=Cc1c(C)c2cc3nc(c4c5[nH]c(cc6nc(cc1[nH]2)C(C)=C6CC)c(C)c5C(=O)C4C(=O)OC)C(CCC(=O)O)C3C` (stereo not shown) [Pheophorbide (1), pheophorbide] reads 0.78; that for `C=Cc1c(C)c2cc3nc(c4c5[nH]c(cc6nc(cc1[nH]2)C(C)=C6CC)c(C)c5C(O)C4C(=O)OCCOC(=O)C1c2c4nc(cc5[nH]c(cc6nc(cc7[nH]c2c(c7C)C1O)C(CC)=C6C)c(C=C)c5C)C(C)C4CCC(=O)O)C(CCC(=O)O)C3C` (stereo not shown) [Ethylene glycol di-10b-9-desoxo-9-hydroxypheophorbate], 2.50.
On the same count and under the same terms, next, `CCC1=C(C)c2cc3[nH]c(cc4nc(c5c6[nH]c(cc1n2)c(C)c6C(OC(C)=O)C5C(=O)OC)C(CCC(=O)O)C4C)c(C)c3C(C)OC(C)=O` (stereo not shown) [2-Desethenyl-2-(1-acetyloxyethyl)-9-desoxo-9-acetyloxypheophorbide]: 0.48.
The same measure, in the same setting: the result for 9-Desoxo-9-hydroxy-pheophorbide C reads 0.32.
Regarding “Monoacetylethylene glycol mono-10b-9-desoxo-9-hydroxy-pheophorbate”, the “N2 pulsed laser spectro-fluorometry, wavelengths calculated using the NADH peak wavelength of 470 nm as the reference” value is on record as 1.20.
On the same count and under the same terms, the result for `C=Cc1c(C)c2cc3nc(c4c5[nH]c(cc6nc(cc1[nH]2)C(C)=C6CC)c(C)c5C(=O)C4)C(CCC(=O)O)C3C` (stereo not shown) [Pyropheophorbide, reference compound] reads 0.25; that for `CCC1=C(C)c2cc3[nH]c(cc4nc(c5c6[nH]c(cc1n2)c(C)c6C(O)C5C(=O)OC)C(CCC(=O)O)C4C)c(C)c3C(C)OC(C)=O` (stereo not shown) [2-Desethenyl-2-(1-acetyloxyethyl)-9-desoxo-9-hydroxy-pheophorbide], 0.95; that for “Ethylene glycol di-10b-2-desethenyl-2-(1-hydroxyethyl)-pheophorbate”, 2.50.
Regarding `CCC1=C(C)c2cc3[nH]c(cc4nc(c5c6[nH]c(cc1n2)c(C)c6C(O)C5C(=O)OC)C(CCC(=O)O)C4C)c(C)c3C(C)O` (stereo not shown) [2-desethenyl-2-(1-hydroxyethyl)-9-desoxo-9-hydroxy-pheophorbide], the “N2 pulsed laser spectro-fluorometry, wavelengths calculated using the NADH peak wavelength of 470 nm as the reference” value is listed as 3.13.
For `C=Cc1c(C)c2cc3nc(c4c5[nH]c(cc6nc(cc1[nH]2)C(C)=C6CC)c(C)c5C(OC(C)=O)C4C(=O)OC)C(CCC(=O)O)C3C` (stereo not shown) [9-Desoxo-9-acetyloxy-pheophorbide, 9-desoxo-9-acetyloxy-pheophorbide], the “N2 pulsed laser spectro-fluorometry, wavelengths calculated using the NADH peak wavelength of 470 nm as the reference” value is given as 0.89.
The same measure, in the same setting: the result for “Ethylene glycol di-10b-2-desethenyl-2-(1-hydroxyethyl)-9-desoxo-9-hydroxy-pheophorbate” reads 1.80.
Regarding `C=Cc1c(C)c2cc3nc(c4c5[nH]c(cc6nc(cc1[nH]2)C(C)=C6CC)c(C)c5C(=O)C4C(=O)OCCO)C(CCC(=O)O)C3C` (stereo not shown) [ethylene glycol mono-10b-pheophorbate], the “N2 pulsed laser spectro-fluorometry, wavelengths calculated using the NADH peak wavelength of 470 nm as the reference” value is 1.72.
Consider “Monoacetylethylene glycol mono-10b-9-desoxo-9-acetyloxy-pheophorbate”, for which the “N2 pulsed laser spectro-fluorometry, wavelengths calculated using the NADH peak wavelength of 470 nm as the reference” value is recorded as 0.85.
As to `C=Cc1c(C)c2cc3nc(c4c5[nH]c(cc6nc(cc1[nH]2)C(C)=C6CC)c(C)c5C(O)C4C(=O)OC)C(CCC(=O)O)C3C` (stereo not shown) [9-Desoxo-9-hydroxy-pheophorbate (11), 9-desoxo-9-hydroxy-pheophorbide], the “N2 pulsed laser spectro-fluorometry, wavelengths calculated using the NADH peak wavelength of 470 nm as the reference” value is on record as 0.93.
`C=Cc1c(C)c2cc3nc(c4c5[nH]c(cc6nc(cc1[nH]2)C(C)=C6CC)c(C)c5C(O)C4C(=O)OCCO)C(CCC(=O)O)C3C` (stereo not shown) [Ethylene glycol mono-10b-9-desoxo-9-hydroxy-pheophorbate]: the “N2 pulsed laser spectro-fluorometry, wavelengths calculated using the NADH peak wavelength of 470 nm as the reference” value is listed as 2.10.
In the case of `C=Cc1c(C)c2cc3nc(c4c5[nH]c(cc6nc(cc1[nH]2)C(C)=C6CC)c(C)c5C(O)C4C(=O)NC(Cc1ccccc1)C(=O)O)C(CCC(=O)OC)C3C` (stereo not shown) [N-Phenylalanine 10b-9-desoxo-9-hydroxy-methylpheophorbidamide], the “N2 pulsed laser spectro-fluorometry, wavelengths calculated using the NADH peak wavelength of 470 nm as the reference” value is recorded as 0.73.
As for `C=Cc1c(C)c2cc3nc(c4c5[nH]c(cc6nc(cc1[nH]2)C(C)=C6CC)c(C)c5C(=O)C4C(=O)OCCOC(=O)C1C(=O)c2c(C)c4cc5nc(cc6[nH]c(cc7nc(c1c2[nH]4)C(CCC(=O)O)C7C)c(C)c6C=C)C(C)=C5CC)C(CCC(=O)O)C3C` (stereo not shown) [Ethylene glycol di-10b-pheophorbate (10), ethylene glycol di-10b-pheophorbate], the “N2 pulsed laser spectro-fluorometry, wavelengths calculated using the NADH peak wavelength of 470 nm as the reference” value was 2.78.
On the same count and under the same terms, next, `C=Cc1c(C)c2cc3nc(c4c5[nH]c(cc6nc(cc1[nH]2)C(C)=C6CC)c(C)c5C(=O)C4C(=O)OCCOC(C)=O)C(CCC(=O)O)C3C` (stereo not shown) [Monoacetylethylene glycol mono-10b-pheophorbate]: 1.30; `C=Cc1c(C)c2cc3nc(c4c5[nH]c(cc6nc(cc1[nH]2)C(C)=C6CC)c(C)c5C(O)C4)C(CCC(=O)O)C3C` (stereo not shown) [9-Desoxo-9-hydroxy-pyropheophorbide]: 0.98.
In the case of `C=Cc1c(C)c2cc3nc(c4c5[nH]c(cc6nc(cc1[nH]2)C(C)=C6CC)c(C)c5C(=O)C4C(=O)NC(Cc1ccccc1)C(=O)O)C(CCC(=O)OC)C3C` (stereo not shown) [N-phenylalanine 10b-methylpheophorbidamide], the “N2 pulsed laser spectro-fluorometry, wavelengths calculated using the NADH peak wavelength of 470 nm as the reference” value was 0.75.

The next test relates to leukemic Molt 4 Cell. Kind of test: Biochemiluminescence by single photoncounter system after laser irradiation (destruction of cancer cells). The format is cell-based. To be noted: Homo sapiens, 100 µg/2 ml, incubated 24 hours at 37°C, He-Ne laser 630 nm, 10 min, 20 mW, read-out: cancer cells destroyed. How it is done: Sodium 9-desoxo-9-hydroxy pheophorbide dissolved in physiological saline of respective concentrations (25 µg/2 ml, 50 µg/2 ml, […]) was added to leukemic Molt 4 Cell ([…] Cells) and the resultant product was incubated for 24 hours at 37°C.
Each incubated cell thus obtained was irradiated with laser (He-Ne gas, 630 nm, 10 min, 20 mW) and trace biochemiluminescence was measured by single photoncounter system.
Intensity of biochemiluminescence substantially correponds to the degree of destructive effect on cancer cells and thus by studying the biochemiluminescence by single photoncounter system, it is possible to predict the destructive effect on cancer cells.
Leukemic Molt 4 cell ([…] cells) was added with physiological saline containing sodium 2- desethenyl-2-(1-hydroxyethyl) pheophorbide (sodium salt of (2)) in respective concentrations ([…], 100 µg/2 ml) and then incubated (37°C, 24 hours). Incubated cells each were irradiated with laser ([…], 630 nm, 10 min, 20 mW) to investigate generation of biochemiluminescence by single photoncounter system by measuring biochemiluminescence; The intensity of biochemiluminescence by single photoncounter system substantially corresponds to the degree of destruction of the cancer cells. […]
Regarding `CCC1=C(C)c2cc3[nH]c(cc4nc(c5c6[nH]c(cc1n2)c(C)c6C(=O)C5C(=O)OC)C(CCC(=O)O)C4C)c(C)c3C(C)O` (stereo not shown) [2-desethenyl-2-(1-hydroxyethyl)-pheophorbide], the cytotoxicity at 50 µg/mL is over 95%.
The same measure, in the same setting: the result for `C=Cc1c(C)c2cc3nc(c4c5[nH]c(cc6nc(cc1[nH]2)C(C)=C6CC)c(C)c5C(O)C4C(=O)OC)C(CCC(=O)O)C3C` (stereo not shown) [9-Desoxo-9-hydroxy-pheophorbate (11), 9-desoxo-9-hydroxy-pheophorbide] reads over 95%.
